Where two headings read alike, the source gives them in different places.
Key:
[1] = test system: HBV; assay: Extracellular HBV DNA and pgRNA in HepAD38 cells (qPCR, RT-qPCR); type: cell-based, Hepatitis B virus; conditions: for Extracellular DNA content (% of DMSO control) / Extracellular pgRNA content (% of DMSO control): HepAD38, concn ETV 0.01, ABI-H0731 2.0, GLS4 0.5, NVR 3-778 2.5, AT-130 0.8, VRD-32 0.8 μM
Description: For HBV RNA Northern blot analysis, total cellular RNA or encapsidated pgRNA samples were resolved in a 1.5% agarose gel containing 2.2 M formaldehyde and transferred onto a Hybond-XL membrane (GE Healthcare). For DNA Southern blot analysis, HBV core DNA or cccDNA samples were resolved by electrophoresis in a 1.2% agarose gel and blotted onto a Hybond-XL membrane. Membranes were probed with either an [α-^32P]UTP (3,000 Ci/mmol; PerkinElmer)-labeled plus-strand-specific (for Northern blot hybridization) or minus-strand-specific (for Southern blot hybridization) HBV riboprobe and exposed to a phosphorimager screen. Extracellular HBV DNA and RNA were copurified from the culture medium of induced HepAD38 cells by using a MinElute virus vacuum kit (Qiagen). Viral DNA was quantified using the above-mentioned qPCR method directly, and HBV RNA was detected by RT-qPCR with the same core region primer/probe set after the removal of DNA contamination by DNase I (Thermo Fisher) treatment.

[2] = test system: HBV (genotype D, subtype ayw); assay: HBV replication assay in HepAD38 cells; type: cell-based, Hepatitis B virus
[3] = test system: HBV; assay: HBV infection of HepG2-NTCP cells; type: cell-based; conditions: Hepatitis B virus
[4] = test system: HBV; assay: HBV infection of primary human hepatocytes (PHHs); type: cell-based; conditions: Hepatitis B virus, Hepatocyte, PHH
[5] = test system: HBV; assay: De novo infection models (HepG2-NTCP and PHH), summary; type: cell-based, Hepatitis B virus; conditions: HepG2-NTCP and PHH cells, tested at up to 100 nM
[6] = test system: HBV cccDNA; assay: cccDNA formation assay in infected HepG2-NTCP cells (Southern blot); type: cell-based; conditions: Hepatitis B virus, 96 h, 1.00 μM, 4 days, read-out: cccDNA % of Control
[7] = test system: HBV cccDNA; assay: cccDNA formation assay in infected PHH cells (Southern blot); type: cell-based; conditions: Hepatitis B virus, 96 h, 0.10 μM, 4 days, read-out: cccDNA % of Control
[8] = test system: HBV capsid DNA; assay: Incoming capsid assay in HepG2-NTCP cells; type: cell-based; conditions: Hepatitis B virus, 1.00 μM, 3 h, read-out: Capsid DNA % of Control
[9] = test system: HBV capsid DNA; assay: Incoming capsid assay in PHH cells; type: cell-based; conditions: Hepatitis B virus, 0.10 μM, 3 h, read-out: Capsid DNA % of Control
[10] = test system: HBV genotype A; assay: microbe, parasite or virus in culture; type: cell-based; conditions: Hepatitis B virus, read-out: Mean antiviral EC50
[11] = test system: HBV genotype B; assay: microbe, parasite or virus in culture; type: cell-based; conditions: Hepatitis B virus, read-out: Mean antiviral EC50
[12] = test system: HBV genotype C; assay: microbe, parasite or virus in culture; type: cell-based; conditions: Hepatitis B virus, read-out: Mean antiviral EC50
[13] = test system: HBV genotype D; assay: microbe, parasite or virus in culture; type: cell-based; conditions: Hepatitis B virus, read-out: Mean antiviral EC50
[14] = test system: HBV genotypes A, B, C, and D; assay: microbe, parasite or virus in culture; type: cell-based; conditions: Hepatitis B virus, read-out: VR EC50s
[15] = test system: NrtI^R HBV (rtL180M/M204V); assay: microbe, parasite or virus in culture; type: cell-based, Hepatitis B virus; conditions: Hepatitis B virus
[16] = test system: HBV Cp Wild type; assay: microbe, parasite or virus in culture; type: cell-based, Hepatitis B virus; conditions: Hepatitis B virus, Huh-7, read-out: Mean EC50
[17] = test system: HBV Cp P25A; assay: microbe, parasite or virus in culture; type: cell-based, Hepatitis B virus; conditions: Hepatitis B virus, Huh-7, read-out: Mean EC50
[18] = test system: HBV Cp D29G; assay: microbe, parasite or virus in culture; type: cell-based, Hepatitis B virus; conditions: Hepatitis B virus, Huh-7, read-out: Mean EC50
[19] = test system: HBV Cp T33N; assay: microbe, parasite or virus in culture; type: cell-based, Hepatitis B virus; conditions: Hepatitis B virus, Huh-7, read-out: Mean EC50
[20] = test system: HBV Cp Y38C; assay: microbe, parasite or virus in culture; type: cell-based, Hepatitis B virus; conditions: Hepatitis B virus, Huh-7, read-out: Mean EC50
[21] = test system: HBV Cp Y38F; assay: microbe, parasite or virus in culture; type: cell-based, Hepatitis B virus; conditions: Hepatitis B virus, Huh-7, read-out: Mean EC50
[22] = test system: HBV Cp I105L; assay: microbe, parasite or virus in culture; type: cell-based, Hepatitis B virus; conditions: Hepatitis B virus, Huh-7, read-out: Mean EC50
[23] = test system: HBV Cp I105T; assay: microbe, parasite or virus in culture; type: cell-based, Hepatitis B virus; conditions: Hepatitis B virus, Huh-7, read-out: Mean EC50
[24] = test system: HBV Cp T109I; assay: microbe, parasite or virus in culture; type: cell-based, Hepatitis B virus; conditions: Hepatitis B virus, Huh-7, read-out: Mean EC50
[25] = test system: HBV Cp T109M; assay: microbe, parasite or virus in culture; type: cell-based, Hepatitis B virus; conditions: Hepatitis B virus, Huh-7, read-out: Mean EC50
[26] = test system: HBV Cp Y118F; assay: microbe, parasite or virus in culture; type: cell-based, Hepatitis B virus; conditions: Hepatitis B virus, Huh-7, read-out: Mean EC50
[27] = test system: HBV; assay: Dose response of ETV and ABI-H0731 alone and in combination in induced HepAD38 cells; type: cell-based, Hepatitis B virus; conditions: 100× VR EC50 of ETV
Procedure: Viral replication was evaluated by quantifying the levels of total HBV DNA in the cells by qPCR. […] In both cases, the data are plotted as a function of each drug’s concentration relative to its VR EC50.

[28] = total intracellular viral DNA, read-out: Mean EC50, viral DNA

## COc1ccccc1/C(Br)=C(/NC(=O)c1ccc([N+](=O)[O-])cc1)C(=O)N1CCCCC1 [AT-130]
[1]
  Extracellular DNA content (% of DMSO control): 5.3 % of DMSO control
  Extracellular pgRNA content (% of DMSO control): 8.6 % of DMSO control

## C=C1[C@H](CO)[C@@H](O)C[C@@H]1n1cnc2c(=O)[nH]c(N)nc21 [ETV, entecavir]
[2]; HepAD38, concomitantly determined with HepG2-NrtI^R, read-out: Mean EC50
  EC50: 0.58 ± 0.15 nM
[2]; Hepatitis B virus, HePAD38, HepAD38, concomitantly determined with HepG2-NrtI^R, read-out: Mean EC50
  EC50: 0.6 nM
[2]; Hepatitis B virus, HePAD38, HepAD38, total intracellular viral DNA, read-out: Mean EC50, viral DNA
  EC50: 1.2 ± 0.3 nM
[2]; Hepatitis B virus, HePAD38, comparison value of Figure S4 legend, read-out: EC50 against a wild-type strain
  EC50: 1 nM
[3]; read-out: Mean EC50, HBeAg
  EC50: > 100 nM
[3]; read-out: Mean EC50, HBsAg
  EC50: > 100 nM
[3]; read-out: Mean EC50, pgRNA
  EC50: > 100 nM
[3]; [28]
  EC50: 0.8 nM
[4]; read-out: Mean EC50, HBeAg
  EC50: > 100 nM
[4]; read-out: Mean EC50, HBsAg
  EC50: > 100 nM
[4]; read-out: Mean EC50, pgRNA
  EC50: > 100 nM
[4]; [28]
  EC50: < 0.1 nM
[5]
  inhibition of viral antigen production: weak and incomplete inhibition
[6]
  activity at 1 µM: 85%
[7]
  activity at 0.1 µM: 88%
[8]
  activity at 1 µM: 90%
[9]
  activity at 0.1 µM: 86%
[1]; HepAD38, ETV 0.01 μM
  secreted HBV DNA levels reduced by: 80%
[1]
  Extracellular DNA content (% of DMSO control): 19.5 % of DMSO control
  Extracellular pgRNA content (% of DMSO control): 170 % of DMSO control
[10]
  EC50: 1.9 ± 0.5 nM
[11]
  EC50: 2.3 ± 0.5 nM
[12]
  EC50: 1.2 ± 0.1 nM
[13]
  EC50: 5 ± 1.9 nM
[14]
  EC50: 1.2 to 5 nM
[15]; 96 h, read-out: Mean EC50
  EC50: 7.1 ± 1.2 nM
[15]; 168 h, read-out: EC50 by Southern blot of intracellular viral core DNA
  EC50: ~10 nM
[16]
  EC50: 1.9 ± 0.9 nM
[17]
  EC50: 2.9 ± 0.3 nM
[18]
  EC50: 0.6 ± 0.1 nM
[19]
  EC50: 3.5 ± 1.6 nM
[20]
  EC50: 1.1 ± 0.5 nM
[21]
  EC50: 4.6 ± 0.6 nM
[22]
  EC50: 0.4 ± 0.2 nM
[23]
  EC50: 0.5 ± 0.3 nM
[24]
  EC50: 1.9 ± 0.6 nM
[25]
  EC50: 1.5 ± 0.3 nM
[26]
  EC50: 1.5 ± 0.9 nM
[27]
  reduction of HBV DNA levels: ~1 log
[27]; control 2.2 × 10^6
  HBV DNA levels: 1.3 × 10^5 copies/μl

From publication PMC7577125 (Antimicrobial Agents and Chemotherapy, 2020)
